pIC50: −log10 of the molar value. Like-named read-outs stand apart in the source and are kept apart here.
Tests used:
[1] = biological target: p110α/p85α (Homo sapiens (Human), UniProt P42336); experiment: PI 3-Kinase (human) HTRF assay, p110α/p85α; assay type: biochemical
[2] = biological target: p110γ (Homo sapiens (Human), UniProt P48736); experiment: PI 3-Kinase (human) HTRF assay, p110γ; assay type: biochemical
Experimental: An exemplary system is PI 3-Kinase (human) HTRF™ Assay from Upstate. […] Briefly, the assay is a time resolved FRET assay that indirectly measures PIP3 product formed by the activity of a PI3-K. The kinase reaction is performed in a microtitre plate (e.g., a 384 well microtitre plate). The total reaction volume is approximately 20 ul per well. In the first step, each well receives 2 ul of test compound in 20% dimethylsulphoxide resulting in a 2% DMSO final concentration. Next, approximately 14.5 ul of a kinase/PIP2 mixture (diluted in 1× reaction buffer) is added per well for a final concentration of 0.25-0.3 ug/ml kinase and 10 μM PIP2. The plate is sealed and incubated for 15 minutes at room temperature. To start the reaction, 3.5 ul of ATP (diluted in 1× reaction buffer) is added per well for a final concentration of 10 μM ATP. The plate is sealed and incubated for 1 hour at room temperature. The reaction is stopped by adding 5 ul of Stop Solution per well and then 5 ul of Detection Mix is added per well. The plate is sealed, incubated for 1 hour at room temperature, and then read on an appropriate plate reader. Data is analyzed and IC50s are generated using GraphPad Prism 5. […] For PI3K α, β, δ, and γ, the nM concentration of inhibitor to reach IC50 is provided.

[3] = in vitro, read-out: PI3K α IC50
[4] = in vitro, read-out: PI3K γ IC50

Chain of p110γ (P48736 whole entry): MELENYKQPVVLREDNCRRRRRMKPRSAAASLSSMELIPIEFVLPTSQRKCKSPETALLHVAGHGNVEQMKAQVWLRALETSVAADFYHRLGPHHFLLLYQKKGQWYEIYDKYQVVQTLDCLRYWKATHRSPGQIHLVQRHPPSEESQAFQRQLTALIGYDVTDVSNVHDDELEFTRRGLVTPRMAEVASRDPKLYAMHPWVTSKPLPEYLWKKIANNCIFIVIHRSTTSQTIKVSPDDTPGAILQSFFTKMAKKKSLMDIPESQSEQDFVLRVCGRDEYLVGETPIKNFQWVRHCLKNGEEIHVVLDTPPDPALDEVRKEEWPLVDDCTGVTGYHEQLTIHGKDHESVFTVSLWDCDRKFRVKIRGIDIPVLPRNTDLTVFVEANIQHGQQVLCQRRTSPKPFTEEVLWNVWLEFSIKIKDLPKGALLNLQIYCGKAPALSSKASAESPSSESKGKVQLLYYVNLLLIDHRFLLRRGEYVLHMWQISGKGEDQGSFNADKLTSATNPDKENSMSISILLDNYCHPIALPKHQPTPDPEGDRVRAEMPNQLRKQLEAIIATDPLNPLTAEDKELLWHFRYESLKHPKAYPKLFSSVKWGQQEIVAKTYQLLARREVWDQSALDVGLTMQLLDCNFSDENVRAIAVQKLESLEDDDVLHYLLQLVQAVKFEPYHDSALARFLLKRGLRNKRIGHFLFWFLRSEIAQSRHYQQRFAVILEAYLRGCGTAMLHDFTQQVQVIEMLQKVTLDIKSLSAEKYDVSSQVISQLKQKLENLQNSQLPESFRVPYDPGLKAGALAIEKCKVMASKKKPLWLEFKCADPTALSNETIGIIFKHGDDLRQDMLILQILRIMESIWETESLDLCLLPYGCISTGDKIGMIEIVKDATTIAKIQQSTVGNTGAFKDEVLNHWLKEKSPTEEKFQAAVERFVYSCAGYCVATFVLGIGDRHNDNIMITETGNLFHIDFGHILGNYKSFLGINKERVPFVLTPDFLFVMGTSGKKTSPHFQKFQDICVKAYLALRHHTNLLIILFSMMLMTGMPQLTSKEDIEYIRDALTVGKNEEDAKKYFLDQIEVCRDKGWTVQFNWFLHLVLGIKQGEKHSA
Chain of p110α/p85α (P42336 whole entry): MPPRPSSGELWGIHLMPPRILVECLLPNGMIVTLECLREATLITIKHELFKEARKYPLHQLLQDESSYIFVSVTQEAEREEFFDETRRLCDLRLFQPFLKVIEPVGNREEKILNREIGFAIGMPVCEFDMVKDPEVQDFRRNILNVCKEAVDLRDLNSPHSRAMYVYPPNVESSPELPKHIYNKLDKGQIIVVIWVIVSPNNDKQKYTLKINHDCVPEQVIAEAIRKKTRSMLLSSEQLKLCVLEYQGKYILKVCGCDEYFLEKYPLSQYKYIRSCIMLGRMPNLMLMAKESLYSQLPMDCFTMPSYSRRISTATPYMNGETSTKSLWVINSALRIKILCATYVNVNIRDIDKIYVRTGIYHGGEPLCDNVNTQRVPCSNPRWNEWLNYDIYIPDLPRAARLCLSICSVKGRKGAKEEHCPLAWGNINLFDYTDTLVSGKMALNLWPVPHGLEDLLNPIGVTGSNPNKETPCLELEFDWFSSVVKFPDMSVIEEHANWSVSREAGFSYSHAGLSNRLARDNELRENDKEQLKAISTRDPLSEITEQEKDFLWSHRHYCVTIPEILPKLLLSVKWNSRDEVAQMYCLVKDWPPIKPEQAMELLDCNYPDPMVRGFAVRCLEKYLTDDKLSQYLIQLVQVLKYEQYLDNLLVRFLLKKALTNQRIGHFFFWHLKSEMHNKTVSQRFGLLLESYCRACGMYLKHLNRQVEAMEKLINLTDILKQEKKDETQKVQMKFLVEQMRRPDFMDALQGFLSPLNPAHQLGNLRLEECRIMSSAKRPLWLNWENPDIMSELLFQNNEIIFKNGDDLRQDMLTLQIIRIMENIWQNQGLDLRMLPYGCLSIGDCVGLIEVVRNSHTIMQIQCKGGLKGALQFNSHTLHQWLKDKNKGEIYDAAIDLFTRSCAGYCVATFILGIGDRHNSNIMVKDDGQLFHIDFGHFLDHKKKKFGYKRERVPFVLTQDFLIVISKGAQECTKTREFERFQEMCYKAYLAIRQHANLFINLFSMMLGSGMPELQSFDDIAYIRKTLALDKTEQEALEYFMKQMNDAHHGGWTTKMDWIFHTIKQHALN
Chain of p110α/p85α (P27986 whole entry partner): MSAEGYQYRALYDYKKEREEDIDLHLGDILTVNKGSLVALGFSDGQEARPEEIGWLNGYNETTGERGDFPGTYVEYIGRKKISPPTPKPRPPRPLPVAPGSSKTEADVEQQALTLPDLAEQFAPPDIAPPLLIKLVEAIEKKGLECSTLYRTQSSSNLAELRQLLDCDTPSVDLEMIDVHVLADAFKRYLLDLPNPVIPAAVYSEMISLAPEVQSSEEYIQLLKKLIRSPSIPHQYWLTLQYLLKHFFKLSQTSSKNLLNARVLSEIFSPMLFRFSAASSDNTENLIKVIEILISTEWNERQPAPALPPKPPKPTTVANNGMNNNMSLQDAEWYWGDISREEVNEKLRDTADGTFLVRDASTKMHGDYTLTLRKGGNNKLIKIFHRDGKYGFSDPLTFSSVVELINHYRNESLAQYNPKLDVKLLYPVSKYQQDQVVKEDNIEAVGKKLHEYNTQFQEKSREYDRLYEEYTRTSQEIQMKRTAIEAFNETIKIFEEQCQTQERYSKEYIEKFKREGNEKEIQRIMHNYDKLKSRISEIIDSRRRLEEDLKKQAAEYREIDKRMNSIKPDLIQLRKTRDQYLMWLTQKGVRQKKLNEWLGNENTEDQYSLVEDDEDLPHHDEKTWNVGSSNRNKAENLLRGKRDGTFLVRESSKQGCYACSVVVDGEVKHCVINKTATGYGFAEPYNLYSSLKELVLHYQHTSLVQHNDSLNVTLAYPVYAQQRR

Nc1ncnc2ccc(-c3ccc4nccc(-c5ccncc5)c4c3)cc12 [compound 8]
pIC50 ([1]; read-out: PI3K α IC50): > 5.00 | pIC50 ([2]; read-out: PI3K γ IC50): > 6.00

Nc1nc2cc(-c3cc4nccc(-c5ccncc5)c4s3)ccc2o1 [compound 14]
pIC50 ([1]; read-out: PI3K α IC50): > 5.00 | pIC50 ([2]; read-out: PI3K γ IC50): > 5.00

Nc1noc2ccc(-c3ccc4nccc(-c5ccncc5)c4c3)cc12 [compound 18]
pIC50 ([1]; read-out: PI3K α IC50): > 5.00 | pIC50 ([2]; read-out: PI3K γ IC50): > 5.00

Nc1nc2cc(-c3c[nH]c4nccc(-c5ccncc5)c34)ccc2o1 [compound 25]
pIC50 ([1]; read-out: PI3K α IC50): > 5.00 | pIC50 ([2]; read-out: PI3K γ IC50): > 5.00

Nc1nc2cc(-c3ccc4nccc(NC5CCOCC5)c4c3)ccc2o1 [compound 32]
pIC50 ([1]; read-out: PI3K α IC50): > 5.00 | pIC50 ([2]; read-out: PI3K γ IC50): > 5.00

Nc1nc2cc(-c3ccc4ncn(C5CCOCC5)c4c3)ccc2o1 [compound 48]
pIC50 ([1]; read-out: PI3K α IC50): > 5.00

Nc1nc2cc(-c3ccc4ncc(N5CCOCC5)n4c3)ccc2o1 [compound 53]
pIC50 ([1]; read-out: PI3K α IC50): > 5.00

Nc1nc2cc(-c3ccc4ncn(C5CCOCC5)c(=O)c4c3)ccc2o1 [compound 55]
pIC50 ([1]; read-out: PI3K α IC50): > 6.00

Nc1nc2ccc(-c3ccc4ncn(C5CCOCC5)c(=O)c4c3)cc2o1 [compound 63]
pIC50 ([1]; read-out: PI3K α IC50): > 5.00

CC(=O)N1CCC(n2cnc3ccc(-c4ccc5oc(N)nc5c4)cc3c2=O)CC1 [compound 66]
pIC50 ([1]; read-out: PI3K α IC50): > 5.00

CS(=O)(=O)N1CCC(n2cnc3ccc(-c4ccc5oc(N)nc5c4)cc3c2=O)CC1 [compound 67]
pIC50 ([1]; read-out: PI3K α IC50): > 6.00

CN1CCN(c2nc3cc(-c4ccc5oc(N)nc5c4)ccc3c(=O)n2C)CC1 [compound 79]
pIC50 ([1]; read-out: PI3K α IC50): > 5.00

Cn1c(N2CCOCC2)nc2cc(-c3ccc4oc(N)nc4c3)ccc2c1=O [compound 80]
pIC50 ([1]; read-out: PI3K α IC50): > 6.00

Nc1nc2cc(-c3ccc4ncc(C(=O)N5CCOCC5)cc4c3)ccc2o1 [compound 97]
pIC50 ([1]; read-out: PI3K α IC50): > 5.00

Nc1nc2cc(-c3ccc4ncc(N5CCS(=O)(=O)CC5)nc4c3)ccc2o1 [compound 98]
pIC50 ([1]; read-out: PI3K α IC50): > 7.00 | pIC50 ([2]; read-out: PI3K γ IC50): > 7.00

CN1CCN(C(=O)c2cnc3ccc(-c4ccc5oc(N)nc5c4)nn23)CC1 [compound 104]
pIC50 ([1]; read-out: PI3K α IC50): > 5.00 | pIC50 ([2]; read-out: PI3K γ IC50): > 5.00

C[C@@H]1CN(C(=O)c2cnc3ccc(-c4ccc5oc(N)nc5c4)cn23)C[C@H](C)O1 [compound 106]
pIC50 ([1]; read-out: PI3K α IC50): > 5.00 | pIC50 ([2]; read-out: PI3K γ IC50): > 5.00

Nc1nc2cc(-c3ccc4ncc(C(=O)N5CCS(=O)(=O)CC5)n4c3)ccc2o1 [compound 107]
pIC50 ([1]; read-out: PI3K α IC50): > 6.00 | pIC50 ([2]; read-out: PI3K γ IC50): > 5.00

Nc1nc2ccc(-c3ccc4ncc(N5CCOCC5)nc4c3)cc2s1 [compound 114]
pIC50 ([1]; read-out: PI3K α IC50): > 7.00 | pIC50 ([2]; read-out: PI3K γ IC50): > 6.00

CN1CCN(C(=O)c2cnc3cnc(-c4ccc5oc(N)nc5c4)cn23)CC1 [compound 123]
pIC50 ([1]; read-out: PI3K α IC50): > 5.00

C[C@@H]1CN(c2cnc3ccc(-c4ccc5oc(N)nc5c4)cc3n2)C[C@H](C)O1 [compound 132]
pIC50 ([1]; read-out: PI3K α IC50): > 6.00 | pIC50 ([2]; read-out: PI3K γ IC50): > 5.00

CCN1CCN(C(=O)c2cnc3ccc(-c4ccc5oc(N)nc5c4)cn23)CC1 [compound 141]
pIC50 ([1]; read-out: PI3K α IC50): > 6.00 | pIC50 ([2]; read-out: PI3K γ IC50): > 5.00

CC1CN(C(=O)c2cnc3ccc(-c4ccc5oc(N)nc5c4)cn23)CC(C)N1 (stereo not shown) [compound 142]
pIC50 ([1]; read-out: PI3K α IC50): > 5.00

Nc1nc2cc(-c3ccc4ncc(-c5ccnc(N6CCOCC6)c5)nc4c3)ccc2o1 [compound 150]
pIC50 ([1]; read-out: PI3K α IC50): > 6.00

CN1CCN(C(=O)c2cnc3ccc(-c4ccc5oc(N)nc5c4)cc3n2)CC1 [compound 157]
pIC50 ([1]; read-out: PI3K α IC50): > 5.00

Nc1nc2cc(-c3ccc4ncc(C(=O)N5CCOCC5)nc4c3)ccc2o1 [compound 158]
pIC50 ([1]; read-out: PI3K α IC50): > 5.00

Nc1nc2cc(-c3ccc4ncc(C(=O)N5CCC(O)CC5)n4c3)ccc2o1 [compound 162]
pIC50 ([1]; read-out: PI3K α IC50): > 6.00 | pIC50 ([2]; read-out: PI3K γ IC50): > 5.00

Nc1nc2cc(-c3ccc4ncc(-c5ccc(N6CCOCC6)nc5)nc4c3)ccc2o1 [compound 167]
pIC50 ([1]; read-out: PI3K α IC50): > 5.00

Nc1nc2cc(-c3ccc4ncc(N5CCCCC5)nc4c3)ccc2o1 [compound 175]
pIC50 ([1]; read-out: PI3K α IC50): > 7.00 | pIC50 ([2]; read-out: PI3K γ IC50): > 5.00

Cc1cn(-c2cnc3ccc(-c4ccc5oc(N)nc5c4)cc3n2)cn1 [compound 177]
pIC50 ([1]; read-out: PI3K α IC50): > 7.00 | pIC50 ([2]; read-out: PI3K γ IC50): > 6.00

Nc1nc2cc(-c3ccc4ncc(-c5ccccc5)nc4c3)ccc2o1 [compound 180]
pIC50 ([1]; read-out: PI3K α IC50): > 6.00

Cc1ncccc1-c1cnc2ccc(-c3ccc4oc(N)nc4c3)cc2n1 [compound 185]
pIC50 ([1]; read-out: PI3K α IC50): > 6.00

Cc1ccc(-c2cnc3ccc(-c4ccc5oc(N)nc5c4)cc3n2)cn1 [compound 194]
pIC50 ([1]; read-out: PI3K α IC50): > 7.00 | pIC50 ([2]; read-out: PI3K γ IC50): > 7.00

Nc1nc2cc(-c3ccc4ncn(C5CCC5)c(=O)c4c3)ccc2o1 [compound 205]
pIC50 [1, 3]: > 7.00

Nc1ncc(-c2cnc3ccc(-c4ccc5oc(N)nc5c4)cc3n2)cn1 [compound 210]
pIC50 [1, 3]: > 6.00

CCN(CC)CCn1cnc2ccc(-c3ccc4oc(N)nc4c3)cc2c1=O [compound 224]
pIC50 [1, 3]: > 5.00

Nc1ncc(-c2ccc3oc(N)nc3c2)cn1 [compound 233]
pIC50 [2, 4]: > 5.00

CC(=O)Nc1nc2cc(-c3ccc4oc(N)nc4c3)ccc2s1 [compound 250]
pIC50 [2, 4]: > 7.00

Nc1nc2cc(-c3ccc4ncn(C5CCCC5)c(=O)c4c3)ccc2o1 [compound 256]
pIC50 [1, 3]: > 5.00

CN1CCN(CCn2cnc3ccc(-c4ccc5oc(N)nc5c4)cc3c2=O)CC1 [compound 280]
pIC50 [1, 3]: > 5.00

Nc1nc2cc(-c3ccc4ncn(CCCN5CCOCC5)c(=O)c4c3)ccc2o1 [compound 290]
pIC50 [1, 3]: > 6.00

CN1CCN(CCCn2cnc3ccc(-c4ccc5oc(N)nc5c4)cc3c2=O)CC1 [compound 291]
pIC50 [1, 3]: > 6.00

CN(C)CCn1cnc2ccc(-c3ccc4oc(N)nc4c3)cc2c1=O [compound 292]
pIC50 [1, 3]: > 5.00

CN(C)C1CCN(C(=O)c2cnc3ccc(-c4ccc5oc(N)nc5c4)cn23)CC1 [compound 304]
pIC50 [1, 3]: > 6.00

Nc1nc2ccc(-c3ccc4nnc(C(=O)N5CCCC5)n4c3)cc2o1 [compound 305]
pIC50 [1, 3]: > 5.00

Cc1nc(NC(=O)N2CCC[C@H]2C(N)=O)sc1-c1ccc2oc(N)nc2c1 [compound 311]
pIC50 [1, 3]: > 6.00

Cc1cc2oc(N)nc2cc1-c1ccc2ncc(N3CC(N4CCOCC4)C3)nc2c1 [compound 353]
pIC50 [1, 3]: > 5.00

Nc1nc2cc(-c3ccc4ncc(C(=O)N5CCOCC5)n4c3)c(Cl)cc2o1 [compound 370]
pIC50 [1, 3]: > 5.00

Cc1c(-c2ccc3oc(N)nc3c2)ccc2ncc(N3CC(N4CCOCC4)C3)nc12 [compound 383]
pIC50 [1, 3]: > 6.00

Cc1c(-c2ccc3oc(N)nc3c2)ccc2ncc(N3CC(N4CCNCC4)C3)nc12 [compound 386]
pIC50 [1, 3]: > 7.00

CCN1CCN(c2cnc3ccc(-c4ccc5oc(N)nc5c4)cc3n2)C(=O)C1 [compound 391]
pIC50 [1, 3]: > 5.00

Nc1nc2cc(-c3ccc4ncc(N5CCN(CC6CC6)CC5=O)nc4c3)ccc2o1 [compound 393]
pIC50 [1, 3]: > 5.00

CC(=O)Nc1cc2ccc(-c3cc(F)c4oc(N)nc4c3)cn2n1 [compound 401]
pIC50 ([2]; read-out: PI3K γ In Vitro IC50): > 5.00

C[C@H]1CN(c2cc3cc(-c4ccc5oc(N)nc5c4)ccc3nc2N)CCN1 [compound 403]
pIC50 ([1]; read-out: PI3K α In Vitro IC50): > 5.00

O=C(c1cnc2ccc(-c3ccc4oc(NC5CC5)nc4c3)cn12)N1CCOCC1 [compound 409]
pIC50 ([1]; read-out: PI3K α In Vitro IC50): > 5.00

Nc1ncc(-c2ccc3ncc(C(=O)N4CCOCC4)n3c2)cc1C(F)(F)F [compound 410]
pIC50 ([1]; read-out: PI3K α In Vitro IC50): > 5.00

Nc1nc2nc(-c3ccc4ncc(C(=O)N5CCOCC5)n4c3)ccc2o1 [compound 412]
pIC50 ([1]; read-out: PI3K α In Vitro IC50): > 5.00

COc1ncc(-c2ccc3ncc(C(=O)N4CCOCC4)n3c2)cc1N [compound 414]
pIC50 ([1]; read-out: PI3K α In Vitro IC50): > 5.00

Nc1cc(-c2ccc3ncc(C(=O)N4CCOCC4)n3c2)cnc1Cl [compound 415]
pIC50 ([1]; read-out: PI3K α In Vitro IC50): > 5.00

Nc1nc2cc(-c3cc(F)c4ncc(C(=O)N5CCOCC5)n4c3)ccc2o1 [compound 438]
pIC50 ([1]; read-out: PI3K α In Vitro IC50): > 5.00

Nc1nc2ccc(-c3cc(F)c4ncc(C(=O)N5CCOCC5)n4c3)cc2o1 [compound 439]
pIC50 ([1]; read-out: PI3K α In Vitro IC50): > 5.00

COc1ccc(-c2ccc3ncc(C(=O)N4CCOCC4)n3c2)cc1S(=O)(=O)Nc1ccccc1 [compound 444]
pIC50 ([1]; read-out: PI3K α In Vitro IC50): > 5.00

CN1CCN(n2cnc3ccc(-c4ccc5oc(N)nc5c4)cc3c2=O)CC1 [compound 446]
pIC50 ([1]; read-out: PI3K α In Vitro IC50): > 6.00

O=C(c1cnc2ccc(-c3cncc(S(=O)(=O)Nc4ccccc4)c3)cn12)N1CCOCC1 [compound 447]
pIC50 ([1]; read-out: PI3K α In Vitro IC50): > 5.00

CNS(=O)(=O)c1cncc(-c2ccc3ncc(C(=O)N4CCOCC4)n3c2)c1 [compound 450]
pIC50 ([1]; read-out: PI3K α In Vitro IC50): > 5.00

CS(=O)(=O)Nc1cc(-c2ccc3ncc(C(=O)N4CCOCC4)n3c2)ccc1Cl [compound 460]
pIC50 ([1]; read-out: PI3K α In Vitro IC50): > 5.00

Nc1nsc2c(-c3ccc4ncc(C(=O)N5CCOCC5)n4c3)cccc12 [compound 474]
pIC50 ([1]; read-out: PI3K α In Vitro IC50): > 5.00

Nc1nc2cccc(-c3ccc4ncc(C(=O)N5CCOCC5)n4c3)c2s1 [compound 485]
pIC50 ([1]; read-out: PI3K α In Vitro IC50): > 5.00

Nc1nsc2cc(-c3ccc4ncc(C(=O)N5CCOCC5)n4c3)ccc12 [compound 489]
pIC50 ([1]; read-out: PI3K α In Vitro IC50): > 5.00

O=C(c1cnc2ccc(-c3cccc4[nH]ncc34)cn12)N1CCOCC1 [compound 506]
pIC50 ([1]; read-out: PI3K α In Vitro IC50): > 7.00

CC1(C)COCCN1C(=O)c1cnc2ccc(-c3ccc4oc(N)nc4c3)cn12 [compound 514]
pIC50 ([1]; read-out: PI3K α In Vitro IC50): > 6.00

O=C(c1cnc2ccc(-c3cnc(Cl)c4[nH]ncc34)cn12)N1CCOCC1 [compound 516]
pIC50 ([1]; read-out: PI3K α In Vitro IC50): > 6.00
